Laboratory results as given in ChEMBL document CHEMBL4052645, “Discovery of potent and efficacious pyrrolopyridazines as dual JAK1/3 inhibitors” (Bioorg Med Chem Lett, 2017).

Legend:
[1] = biological target: Receptor-interacting serine/threonine-protein kinase 1 (Homo sapiens) (UniProt Q13546); assay: Inhibition of wild-type human partial length RIPK1 (M1 to K305 residues) expressed in bacterial expression system assessed as residual activity at 50 nM by Kinomescan method relative to control
[2] = biological target: Serine/threonine-protein kinase BRSK2 (Homo sapiens) (UniProt Q8IWQ3); assay: Inhibition of wild-type human full length BRSK2 (M1 to L674 residues) expressed in bacterial expression system assessed as residual activity at 50 nM by Kinomescan method relative to control
[3] = biological target: Tyrosine-protein kinase receptor UFO (Homo sapiens) (UniProt P30530); assay: Inhibition of wild-type human partial length AXL (R497 to Y821 residues) expressed in bacterial expression system assessed as residual activity at 50 nM by Kinomescan method relative to control
[4] = biological target: Serine/threonine-protein kinase PLK3 (Homo sapiens) (UniProt Q9H4B4); assay: Inhibition of wild-type human partial length PLK3 (A42 to L334 residues) expressed in mammalian expression system assessed as residual activity at 50 nM by Kinomescan method relative to control
[5] = biological target: RAC-gamma serine/threonine-protein kinase (Homo sapiens) (UniProt Q9Y243); assay: Inhibition of wild-type human partial length AKT3 expressed in bacterial expression system assessed as residual activity at 50 nM by Kinomescan method relative to control
Sequence of RAC-gamma serine/threonine-protein kinase (Homo sapiens) (Q9Y243 whole entry, the tested form may be a part): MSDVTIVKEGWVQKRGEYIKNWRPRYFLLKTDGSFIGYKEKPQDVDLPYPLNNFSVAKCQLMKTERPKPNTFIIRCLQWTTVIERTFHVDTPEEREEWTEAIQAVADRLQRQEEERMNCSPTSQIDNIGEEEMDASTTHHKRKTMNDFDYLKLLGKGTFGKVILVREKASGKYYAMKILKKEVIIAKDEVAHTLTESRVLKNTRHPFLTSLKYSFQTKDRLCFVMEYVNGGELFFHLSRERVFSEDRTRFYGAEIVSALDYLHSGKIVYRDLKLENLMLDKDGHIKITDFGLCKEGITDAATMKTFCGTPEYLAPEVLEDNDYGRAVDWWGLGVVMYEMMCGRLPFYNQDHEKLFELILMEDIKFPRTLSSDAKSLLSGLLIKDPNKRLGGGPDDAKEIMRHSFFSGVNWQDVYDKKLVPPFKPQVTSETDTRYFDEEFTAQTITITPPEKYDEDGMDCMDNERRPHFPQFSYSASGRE

[6] = biological target: Protein-tyrosine kinase 6 (Homo sapiens) (UniProt Q13882); assay: Inhibition of wild-type human partial length BRK (L166 to T451 residues) expressed in bacterial expression system assessed as residual activity at 50 nM by Kinomescan method relative to control
[7] = biological target: Casein kinase I isoform delta (Homo sapiens) (UniProt P48730); assay: Inhibition of wild-type human full length CK1D (M1 to K409 residues) expressed in bacterial expression system assessed as residual activity at 50 nM by Kinomescan method relative to control
[8] = biological target: Tyrosine-protein kinase Fer (Homo sapiens) (UniProt P16591); assay: Inhibition of wild-type human partial length FER (S542 to T822 residues) expressed in bacterial expression system assessed as residual activity at 50 nM by Kinomescan method relative to control
Sequence of Tyrosine-protein kinase Fer (Homo sapiens) (P16591 whole entry, looked up, the tested form may be a part): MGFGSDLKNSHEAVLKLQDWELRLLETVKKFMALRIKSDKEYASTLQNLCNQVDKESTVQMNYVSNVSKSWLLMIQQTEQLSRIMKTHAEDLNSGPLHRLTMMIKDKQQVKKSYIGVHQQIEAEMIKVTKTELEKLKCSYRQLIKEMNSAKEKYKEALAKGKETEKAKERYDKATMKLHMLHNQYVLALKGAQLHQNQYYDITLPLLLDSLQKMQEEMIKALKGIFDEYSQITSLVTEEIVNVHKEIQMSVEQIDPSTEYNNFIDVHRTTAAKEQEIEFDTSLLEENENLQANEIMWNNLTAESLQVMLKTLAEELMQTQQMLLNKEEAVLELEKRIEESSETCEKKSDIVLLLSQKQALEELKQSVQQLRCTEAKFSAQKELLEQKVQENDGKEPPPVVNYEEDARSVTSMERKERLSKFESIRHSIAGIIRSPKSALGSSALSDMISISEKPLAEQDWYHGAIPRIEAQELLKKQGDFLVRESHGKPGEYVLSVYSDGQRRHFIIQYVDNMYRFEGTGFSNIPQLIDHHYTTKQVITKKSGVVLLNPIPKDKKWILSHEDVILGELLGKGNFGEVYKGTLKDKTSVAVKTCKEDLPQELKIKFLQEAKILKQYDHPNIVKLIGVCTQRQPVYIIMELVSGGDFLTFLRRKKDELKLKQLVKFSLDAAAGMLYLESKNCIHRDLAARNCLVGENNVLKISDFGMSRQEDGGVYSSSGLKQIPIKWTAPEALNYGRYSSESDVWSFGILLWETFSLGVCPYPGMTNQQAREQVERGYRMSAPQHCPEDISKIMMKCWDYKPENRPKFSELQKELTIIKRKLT

[9] = biological target: Serine/threonine-protein kinase Nek9 (Homo sapiens) (UniProt Q8TD19); assay: Inhibition of wild-type human partial length NEK9 (P32 to R328 residues) expressed in bacterial expression system assessed as residual activity at 50 nM by Kinomescan method relative to control
Sequence of Serine/threonine-protein kinase Nek9 (Homo sapiens) (Q8TD19 whole entry, the tested form may be a part): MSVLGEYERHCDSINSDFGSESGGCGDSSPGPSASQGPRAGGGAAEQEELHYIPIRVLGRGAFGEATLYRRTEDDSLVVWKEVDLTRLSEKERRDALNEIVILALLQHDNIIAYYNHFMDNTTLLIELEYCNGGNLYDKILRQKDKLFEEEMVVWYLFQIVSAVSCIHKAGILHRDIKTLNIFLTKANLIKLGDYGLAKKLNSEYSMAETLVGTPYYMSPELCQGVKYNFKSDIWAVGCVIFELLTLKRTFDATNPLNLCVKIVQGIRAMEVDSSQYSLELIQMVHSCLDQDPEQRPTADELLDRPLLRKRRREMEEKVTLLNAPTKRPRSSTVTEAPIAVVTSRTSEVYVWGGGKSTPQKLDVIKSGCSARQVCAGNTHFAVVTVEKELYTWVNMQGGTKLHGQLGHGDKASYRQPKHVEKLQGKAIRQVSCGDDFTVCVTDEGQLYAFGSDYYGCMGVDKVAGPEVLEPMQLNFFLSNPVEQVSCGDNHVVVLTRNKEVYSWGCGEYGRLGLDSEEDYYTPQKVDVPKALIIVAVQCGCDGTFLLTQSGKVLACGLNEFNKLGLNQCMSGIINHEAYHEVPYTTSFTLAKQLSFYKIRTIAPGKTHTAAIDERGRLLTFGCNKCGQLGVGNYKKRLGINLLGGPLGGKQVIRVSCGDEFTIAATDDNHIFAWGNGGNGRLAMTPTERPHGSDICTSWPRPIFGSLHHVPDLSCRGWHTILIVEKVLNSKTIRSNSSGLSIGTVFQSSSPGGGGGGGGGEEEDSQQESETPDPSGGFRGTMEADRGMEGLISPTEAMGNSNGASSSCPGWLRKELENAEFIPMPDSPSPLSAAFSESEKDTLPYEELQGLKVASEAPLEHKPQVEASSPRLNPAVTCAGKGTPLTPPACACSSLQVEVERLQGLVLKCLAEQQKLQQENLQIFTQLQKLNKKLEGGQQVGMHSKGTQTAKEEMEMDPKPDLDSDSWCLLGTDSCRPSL

[10] = biological target: Vascular endothelial growth factor receptor 3 (Homo sapiens) (UniProt P35916); assay: Inhibition of wild-type human partial length FLT4 (E821 to E1196 residues) expressed in bacterial expression system assessed as residual activity at 50 nM by Kinomescan method relative to control
[11] = biological target: Inhibitor of nuclear factor kappa-B kinase subunit alpha (Homo sapiens) (UniProt O15111); assay: Inhibition of wild-type human full length IKK-alpha (M1 to E745 residues) expressed in mammalian expression system assessed as residual activity at 50 nM by Kinomescan method relative to control
[12] = biological target: Activin receptor type-1-like (Homo sapiens) (UniProt P37023); assay: Inhibition of wild-type human ALK1 (L164 to Q503 residues) expressed in bacterial expression system assessed as residual activity at 50 nM by Kinomescan method relative to control
[13] = biological target: Cyclin-G-associated kinase (Homo sapiens) (UniProt O14976); assay: Inhibition of wild-type human partial length GAK (G13 to Y338 residues) expressed in bacterial expression system assessed as residual activity at 50 nM by Kinomescan method relative to control
[14] = biological target: RAF proto-oncogene serine/threonine-protein kinase (Homo sapiens) (UniProt P04049); assay: Inhibition of wild-type human partial length RAF1 (I330 to T640 residues) expressed in bacterial expression system assessed as residual activity at 50 nM by Kinomescan method relative to control
[15] = biological target: Ribosomal protein S6 kinase alpha-3 (Homo sapiens) (UniProt P51812); assay: Inhibition of wild-type human partial length N-terminal RSK2 kinase domain 1 (M1 to D394 residues) expressed in mammalian expression system assessed as residual activity at 50 nM by Kinomescan method relative to control
[16] = biological target: Bone morphogenetic protein receptor type-1B (Homo sapiens) (UniProt O00238); assay: Inhibition of wild-type human partial length BMPR1B (D178 to L502 residues) expressed in mammalian expression system assessed as residual activity at 50 nM by Kinomescan method relative to control
Sequence of Bone morphogenetic protein receptor type-1B (Homo sapiens) (O00238 whole entry, the tested form may be a part): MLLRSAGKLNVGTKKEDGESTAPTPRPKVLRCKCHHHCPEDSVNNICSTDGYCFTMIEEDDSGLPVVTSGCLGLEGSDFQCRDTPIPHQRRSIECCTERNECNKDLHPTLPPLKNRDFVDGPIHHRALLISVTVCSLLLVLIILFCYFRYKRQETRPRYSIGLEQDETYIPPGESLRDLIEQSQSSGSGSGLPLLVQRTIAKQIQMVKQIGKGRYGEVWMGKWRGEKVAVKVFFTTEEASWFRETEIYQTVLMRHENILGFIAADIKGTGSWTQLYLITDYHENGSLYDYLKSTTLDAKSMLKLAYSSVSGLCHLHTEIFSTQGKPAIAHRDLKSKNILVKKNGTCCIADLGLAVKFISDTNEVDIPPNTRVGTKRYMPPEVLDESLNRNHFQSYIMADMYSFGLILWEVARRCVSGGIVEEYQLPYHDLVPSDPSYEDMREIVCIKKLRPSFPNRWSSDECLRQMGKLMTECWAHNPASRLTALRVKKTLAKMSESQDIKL

[17] = biological target: Dual specificity protein kinase CLK3 (Homo sapiens) (UniProt P49761); assay: Inhibition of wild-type human full length CLK3 (M1 to R490 residues) expressed in bacterial expression system assessed as residual activity at 50 nM by Kinomescan method relative to control
[18] = biological target: Mitogen-activated protein kinase 1 (Homo sapiens) (UniProt P28482); assay: Inhibition of wild-type human full length ERK2 (M1 to S360 residues) expressed in bacterial expression system assessed as residual activity at 50 nM by Kinomescan method relative to control
Sequence of Mitogen-activated protein kinase 1 (Homo sapiens) (P28482 whole entry, the tested form may be a part): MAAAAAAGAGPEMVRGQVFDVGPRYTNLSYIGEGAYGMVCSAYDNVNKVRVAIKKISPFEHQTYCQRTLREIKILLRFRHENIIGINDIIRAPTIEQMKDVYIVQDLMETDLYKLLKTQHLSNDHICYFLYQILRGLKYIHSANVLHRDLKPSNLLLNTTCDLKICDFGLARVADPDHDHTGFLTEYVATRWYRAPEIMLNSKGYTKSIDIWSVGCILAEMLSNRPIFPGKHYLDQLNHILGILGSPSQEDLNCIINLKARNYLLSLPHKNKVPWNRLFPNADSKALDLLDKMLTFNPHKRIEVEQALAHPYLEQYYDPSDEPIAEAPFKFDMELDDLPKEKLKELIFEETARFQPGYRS

[19] = biological target: Macrophage colony-stimulating factor 1 receptor (Homo sapiens) (UniProt P07333); assay: Inhibition of wild-type human partial length FMS (I564 to S939 residues) expressed in bacterial expression system assessed as residual activity at 50 nM by Kinomescan method relative to control
[20] = biological target: Serine/threonine-protein kinase Nek5 (Homo sapiens) (UniProt Q6P3R8); assay: Inhibition of wild-type human partial length NEK5 (M1 to M279 residues) expressed in bacterial expression system assessed as residual activity at 50 nM by Kinomescan method relative to control
Sequence of Serine/threonine-protein kinase Nek5 (Homo sapiens) (Q6P3R8 whole entry, the tested form may be a part): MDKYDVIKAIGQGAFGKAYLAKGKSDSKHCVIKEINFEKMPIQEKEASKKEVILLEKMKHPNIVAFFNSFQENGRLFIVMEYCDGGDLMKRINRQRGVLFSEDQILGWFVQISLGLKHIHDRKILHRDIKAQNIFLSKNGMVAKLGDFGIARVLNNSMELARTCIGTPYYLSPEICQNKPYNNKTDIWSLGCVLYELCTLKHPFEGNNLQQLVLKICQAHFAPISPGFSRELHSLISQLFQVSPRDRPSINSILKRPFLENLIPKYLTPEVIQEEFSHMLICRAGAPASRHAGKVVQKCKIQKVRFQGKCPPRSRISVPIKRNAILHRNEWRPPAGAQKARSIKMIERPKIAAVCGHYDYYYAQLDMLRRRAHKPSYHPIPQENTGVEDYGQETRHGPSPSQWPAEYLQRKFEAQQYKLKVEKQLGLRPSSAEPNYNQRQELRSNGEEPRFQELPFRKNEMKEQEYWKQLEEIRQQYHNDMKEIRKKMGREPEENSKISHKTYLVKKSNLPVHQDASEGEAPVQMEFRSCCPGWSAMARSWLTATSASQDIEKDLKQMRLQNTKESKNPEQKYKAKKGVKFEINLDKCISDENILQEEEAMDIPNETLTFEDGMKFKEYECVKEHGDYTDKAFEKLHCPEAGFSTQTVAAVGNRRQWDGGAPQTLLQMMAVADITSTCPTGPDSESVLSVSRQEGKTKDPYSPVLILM

[21] = biological target: Serine/threonine-protein kinase 32B (Homo sapiens) (UniProt Q9NY57); assay: Inhibition of wild-type human full length YANK2 (M1 to S414 residues) expressed in bacterial expression system assessed as residual activity at 50 nM by Kinomescan method relative to control
[22] = biological target: Serine/threonine-protein kinase PAK 5 (Homo sapiens) (UniProt Q9P286); assay: Inhibition of wild-type human partial length PAK5 (Y400 to H719 residues) expressed in bacterial expression system assessed as residual activity at 50 nM by Kinomescan method relative to control
[23] = biological target: Tyrosine-protein kinase ABL1 (Homo sapiens) (UniProt P00519); assay: Inhibition of wild-type human non-phosphorylated ABL1 (S229 to K512 residues) expressed in mammalian expression system assessed as residual activity at 50 nM by Kinomescan method relative to control
[24] = biological target: Wee1-like protein kinase 2 (Homo sapiens) (UniProt P0C1S8); assay: Inhibition of wild-type human partial length WEE1B (M204 to K492 residues) expressed in bacterial expression system assessed as residual activity at 50 nM by Kinomescan method relative to control
[25] = test system: Phosphatidylinositol 4,5-bisphosphate 3-kinase catalytic subunit alpha isoform (Homo sapiens), P42336 [C420R]; assay: Inhibition of human partial length PI3KCA C420R mutant (R108 to N1068 residues) expressed in mammalian expression system assessed as residual activity at 50 nM by Kinomescan method relative to control
Sequence of Phosphatidylinositol 4,5-bisphosphate 3-kinase catalytic subunit alpha isoform (Homo sapiens), P42336 [C420R] (P42336 whole entry C420R, the tested form may be a part, canonical isoform): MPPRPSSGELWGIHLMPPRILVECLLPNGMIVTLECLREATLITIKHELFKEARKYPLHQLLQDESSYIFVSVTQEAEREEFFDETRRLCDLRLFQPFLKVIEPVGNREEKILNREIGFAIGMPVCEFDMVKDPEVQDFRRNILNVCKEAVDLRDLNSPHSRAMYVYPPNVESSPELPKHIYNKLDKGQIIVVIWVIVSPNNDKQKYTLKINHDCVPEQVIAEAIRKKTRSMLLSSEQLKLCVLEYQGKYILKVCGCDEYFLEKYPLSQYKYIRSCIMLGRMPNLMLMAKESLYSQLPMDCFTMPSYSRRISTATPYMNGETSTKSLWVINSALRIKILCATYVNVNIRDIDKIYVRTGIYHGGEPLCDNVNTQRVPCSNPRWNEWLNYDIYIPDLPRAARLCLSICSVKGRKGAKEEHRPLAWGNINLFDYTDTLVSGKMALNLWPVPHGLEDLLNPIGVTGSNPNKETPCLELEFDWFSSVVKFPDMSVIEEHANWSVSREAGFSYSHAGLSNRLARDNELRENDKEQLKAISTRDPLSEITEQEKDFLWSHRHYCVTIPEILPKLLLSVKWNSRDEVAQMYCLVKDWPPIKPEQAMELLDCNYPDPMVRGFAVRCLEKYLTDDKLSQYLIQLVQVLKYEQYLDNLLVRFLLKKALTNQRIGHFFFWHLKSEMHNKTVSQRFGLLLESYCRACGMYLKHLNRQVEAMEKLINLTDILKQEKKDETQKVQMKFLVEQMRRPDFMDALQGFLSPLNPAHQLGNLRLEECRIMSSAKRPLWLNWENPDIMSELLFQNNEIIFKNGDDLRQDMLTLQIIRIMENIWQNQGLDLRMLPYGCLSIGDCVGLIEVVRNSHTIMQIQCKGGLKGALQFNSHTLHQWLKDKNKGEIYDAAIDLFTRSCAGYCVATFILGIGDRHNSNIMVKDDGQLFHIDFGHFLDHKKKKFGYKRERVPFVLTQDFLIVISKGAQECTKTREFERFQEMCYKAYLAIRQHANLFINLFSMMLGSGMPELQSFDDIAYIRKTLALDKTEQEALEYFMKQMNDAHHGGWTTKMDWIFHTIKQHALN

SMILES | Activity [1] [%] | Activity [2] [%] | Activity [3] [%] | Activity [4] [%] | Activity [5] [%] | Activity [6] [%] | Activity [7] [%] | Activity [8] [%] | Activity [9] [%] | Activity [10] [%] | Activity [11] [%] | Activity [12] [%] | Activity [13] [%] | Activity [14] [%] | Activity [15] [%] | Activity [16] [%] | Activity [17] [%] | Activity [18] [%] | Activity [19] [%] | Activity [20] [%] | further results
COc1ccc(-c2cc3c(N[C@@H]4CC[C@](C)(N)C4(C)C)c(C(N)=O)cnn3c2)cn1 | 100 | 96 | 96 | 95 | 100 | 96 | 100 | 100 | 100 | 86 | 87 | 100 | 100 | 100 | 74 | 100 | 96 | 100 | 74 | 100 | Activity [21]: 100%; Activity [22]: 68%; Activity [23]: 90%; Activity [24]: 98%; Activity [25]: 100%
CC1(C)[C@H](Nc2c(C(N)=O)cnn3cc(-c4ccccc4)cc23)CC[C@]1(C)N | 92 | 100 | 90 | 89 | 100 | 100 | 98 | 100 | 100 | 100 | 100 | 100 | 91 | 100 | 47 | 100 | 100 | 82 | 57 | 100 | Activity [21]: 100%; Activity [22]: 50%; Activity [23]: 100%; Activity [24]: 73%; Activity [25]: 100%
